From US11135244B2, “Stem cell culture media and methods of enhancing cell survival” (Fate Therapeutics, Inc., priority 2013, dated 2021) come the findings set out here.

Structures are written as SMILES.

Experiment [1] relates to CXCR4 surface protein within Lin-CD45lowCD34+7AAD- cells. As to the kind of experiment: CXCR4 surface protein on cord blood mononuclear cells after dmPGE2 treatment. The following applies: 10 μM dmPGE2 two hours at 37° C., then additional one hour incubation without dmPGE2. In kind it is cell-based. As for the experimental part: Cord blood mononuclear cells (All Cells, Emeryville, Calif.) were thawed in a 37° C. water bath and immediately diluted with 10 mL of pre-warmed IMDM with 10% fetal calf serum and 5 uL of DNase (Life Technologies, Grand Island, N.Y.). The cells were split three ways and centrifuged at 300×g for 10 minutes. The cells were resuspended in STEMSPAN-ACF (Media 1), STEMSPAN-ACF with 5% Dextran-40 (Media 2) or STEMSPAN-ACF with 10% Dextran-40 (Media 3). A subset, 1×10^6 cells, from Media 1 were kept at 4° C. and immediately stained with Lineage Mix-FITC, CXCR4-PE, CD34-APC, and CD45-V450 antibodies from BD Biosciences. All 3 media conditions were split into a vehicle-treated cohort and a 10 μM dmPGE2-treated cohort and incubated at 37° C. for 2 hours. The cells were washed with the same media and incubated at 37° C. for an additional 1 hour. Each cohort was stained with the same antibodies as indicated above. Levels of CXCR4 surface protein within the Lin-CD45^lowCD34+7AAD-cells were analyzed.

A further experiment concerns CXCR4 gene expression. Put plainly: CXCR4 gene expression after incubation with dmPGE2. The following applies: 10 μM dmPGE2 for two hours at 37° C. It counts as cell-based.

As to `CCCCC(C)(C)[C@H](O)/C=C/[C@H]1[C@H](O)CC(=O)[C@@H]1C/C=C\CCCC(=O)O` [dmPGE2, 16,16-dimethyl PGE2], the CXCR4 surface protein result in experiment [1] was “increased”. In addition, the CXCR4 gene expression result in the experiment on CXCR4 gene expression is “increased”.
